Results taken from US20030215462A1, “Use of UGT inhibitors to increase bioavailability” (priority 2001, published 2003).
Several values for one entry are separate records, joined by “and”; a condition that tells them apart may be missing. Equal entries are not always repeated.

Columns and labels:
[1] = target: T1, UGT enzymes of human liver microsomes; assay: Inhibition of 7-HFC glucuronidation in human liver microsomes; format: biochemical; conditions: for % of control metabolism (SD, n = 3), 7-HFC glucuronidation: human liver microsomes 100 μg/ml
T1 construct: percentage of control metabolism, 7-HFC glucuronidation; percentage of control metabolism, 7-HFC glucuronidation

[2] = test system: UGT enzymes of pooled human jejunum microsomes; assay: Inhibition of raloxifene glucuronidation (G1, G2) in pooled human jejunum microsomes; format: biochemical; conditions: jejunum HJ61; inhibitor 50 μM
Method: Compounds were eluted using a binary solvent gradient system. […] Solvent B was methanol. […] Detection was at 280 nm.
Standardized incubations utilized […] microsomal protein, 1 mM UDPGA and a 30 min incubation time.

[3] = test system: T2, UGT enzymes of human liver microsomes; assay: Inhibition of estradiol (E2) glucuronidation in human liver microsomes; format: biochemical; conditions: liver 032101, E2 50 μM
T2 construct: residual metabolism (% of control), E2-17-β-D-glucuronide; other: liver 032101; residual metabolism (% of control), E2-17-β-D-glucuronide
Text: (§1) Compounds were eluted using a binary solvent gradient system where solvent A was dilute phosphoric acid (pH 3) and solvent B was 80:20 acetonitrile-methanol. […] Detection was at 280 nm.

[4] = test system: T3, UGT enzymes of human liver microsomes; assay: as above; format: biochemical; conditions: liver 032101, E2 50 μM
T3 construct: residual metabolism (% of control), E2-3-β-D-glucuronide; other: liver 032101; residual metabolism (% of control), E2-3-β-D-glucuronide
Text: as §1

UGT1A1 = target: T4, UGT1A1 (Homo sapiens, UniProt P22309); assay: Inhibition of raloxifene glucuronidation by recombinant UGT1A1 Supersomes; conditions: for activity at 15 min / activity at 15 min, 10 µM / activity at 15 min, 25 µM / activity at 15 min, 50 µM: human; for activity at 15 min, 10 µM: inhibitor 10 μM; for activity at 15 min, 25 µM: inhibitor 25 μM; for activity at 15 min, 50 µM: inhibitor 50 μM
T4 sequence (P22309 26-533): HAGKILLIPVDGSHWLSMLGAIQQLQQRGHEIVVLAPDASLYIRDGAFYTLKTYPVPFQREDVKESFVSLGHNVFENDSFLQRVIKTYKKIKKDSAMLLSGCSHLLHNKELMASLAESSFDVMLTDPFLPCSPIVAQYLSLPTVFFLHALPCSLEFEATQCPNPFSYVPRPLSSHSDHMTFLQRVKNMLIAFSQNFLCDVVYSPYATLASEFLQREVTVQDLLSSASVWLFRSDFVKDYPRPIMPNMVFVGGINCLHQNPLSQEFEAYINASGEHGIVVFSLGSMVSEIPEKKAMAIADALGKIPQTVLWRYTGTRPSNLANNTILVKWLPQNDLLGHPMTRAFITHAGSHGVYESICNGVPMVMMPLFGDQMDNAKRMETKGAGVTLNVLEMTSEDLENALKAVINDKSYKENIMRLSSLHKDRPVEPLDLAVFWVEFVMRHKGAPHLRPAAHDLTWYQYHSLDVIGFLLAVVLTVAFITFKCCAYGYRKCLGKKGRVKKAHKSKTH
Method: (§2) Compounds were eluted using a binary solvent gradient system. Solvent A was water brought to pH 8 with NH4OH. Solvent B was methanol. Solvent flow rate was 1 ml/min and the column temperature was maintained at 50° C. Detection was at 280 nm. […] The system was then returned to the initial conditions and equilibrated for 3 min.

UGT1A3 = target: T5, UGT1A3 (Homo sapiens, UniProt P35503); assay: Inhibition of raloxifene glucuronidation by recombinant UGT1A3 Supersomes; conditions: for activity at 15 min, 10 µM / activity at 15 min, 25 µM / activity at 15 min, 50 µM: human; for activity at 15 min, 10 µM: inhibitor 10 μM; for activity at 15 min, 25 µM: inhibitor 25 μM; for activity at 15 min, 50 µM: inhibitor 50 μM
T5 sequence (P35503 29-534): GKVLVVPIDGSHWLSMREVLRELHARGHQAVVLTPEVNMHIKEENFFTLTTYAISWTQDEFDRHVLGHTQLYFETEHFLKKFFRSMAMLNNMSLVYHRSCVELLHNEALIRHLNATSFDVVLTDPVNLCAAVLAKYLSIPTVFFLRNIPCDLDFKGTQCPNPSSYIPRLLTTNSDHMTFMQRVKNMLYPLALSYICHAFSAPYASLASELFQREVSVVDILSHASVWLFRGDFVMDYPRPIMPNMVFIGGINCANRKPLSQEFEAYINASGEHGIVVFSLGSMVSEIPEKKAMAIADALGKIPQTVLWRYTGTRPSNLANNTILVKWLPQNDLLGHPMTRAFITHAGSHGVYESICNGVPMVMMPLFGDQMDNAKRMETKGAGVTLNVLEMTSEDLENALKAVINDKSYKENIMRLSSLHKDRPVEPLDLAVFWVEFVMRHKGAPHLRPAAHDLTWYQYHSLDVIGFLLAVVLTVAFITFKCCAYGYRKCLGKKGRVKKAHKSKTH
Method: as §2

UGT1A10 = target: T6, UGT1A10 (Homo sapiens, UniProt Q9HAW8); assay: Inhibition of raloxifene glucuronidation by recombinant UGT1A10 Bacculosomes; conditions: for activity at 15 min, 50 µM: human, Bacculosomes with recombinant human UGT1A10, pH 7.5, probe raloxifene 50 μM, inhibitor 50 μM
T6 sequence (Q9HAW8 26-530): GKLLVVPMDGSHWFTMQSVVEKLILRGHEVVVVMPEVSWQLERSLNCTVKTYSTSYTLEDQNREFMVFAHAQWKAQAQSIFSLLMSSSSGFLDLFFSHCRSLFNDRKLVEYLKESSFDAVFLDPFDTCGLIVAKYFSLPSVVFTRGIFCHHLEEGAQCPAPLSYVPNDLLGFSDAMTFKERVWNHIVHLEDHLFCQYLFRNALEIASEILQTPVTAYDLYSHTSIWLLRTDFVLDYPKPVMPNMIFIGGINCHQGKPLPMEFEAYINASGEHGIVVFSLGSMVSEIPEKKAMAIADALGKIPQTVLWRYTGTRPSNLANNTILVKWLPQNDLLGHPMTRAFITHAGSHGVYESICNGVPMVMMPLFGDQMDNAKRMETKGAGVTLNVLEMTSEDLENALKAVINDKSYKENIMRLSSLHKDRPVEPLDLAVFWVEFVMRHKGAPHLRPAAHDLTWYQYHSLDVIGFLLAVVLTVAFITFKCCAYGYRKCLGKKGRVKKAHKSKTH
Method: as §2

[5] = Supersomes with recombinant human UGT1A1, pH 7.5, probe raloxifene 50 μM, formation of glucuronide G1, % of control metabolism, raloxifene G1, UGT1A1
[6] = Supersomes with recombinant human UGT1A1, pH 7.5, probe raloxifene 50 μM, formation of glucuronide G1, Inhibition of raloxifene glucuronidation, G1, UGT1A1, G1, raloxifene 50 μM, 250 μg/ml Supersomes, 1 mM UDPGA, 15 min
[7] = Supersomes with recombinant human UGT1A1, pH 7.5, probe raloxifene 50 μM, formation of glucuronide G2, % of control metabolism, raloxifene G2, UGT1A1
[8] = recombinant UGT1A1 Supersomes, pH 7.5, probe raloxifene 50 μM (formation of glucuronide G2), Inhibition of raloxifene glucuronidation, G2, UGT1A1, G2, raloxifene 50 μM, 250 μg/ml Supersomes, 1 mM UDPGA, 15 min
[9] = Supersomes with recombinant human UGT1A3, pH 7.5, probe raloxifene 50 μM, formation of glucuronide G1, % of control metabolism, raloxifene G1, UGT1A3
[10] = Supersomes with recombinant human UGT1A3, pH 7.5, probe raloxifene 50 μM, formation of glucuronide G2, % of control metabolism, raloxifene G2, UGT1A3
[11] = recombinant UGT1A3 Supersomes, pH 7.5, probe raloxifene 50 μM (formation of glucuronide G1), Inhibition of raloxifene glucuronidation, G1, UGT1A3, G1, raloxifene 50 μM, 250 μg/ml Supersomes, 1 mM UDPGA, 15 min
[12] = recombinant UGT1A3 Supersomes, pH 7.5, probe raloxifene 50 μM (formation of glucuronide G2), Inhibition of raloxifene glucuronidation, G2, UGT1A3, G2, raloxifene 50 μM, 250 μg/ml Supersomes, 1 mM UDPGA, 15 min

SMILES: CCCCCCCCOC(=O)c1cc(O)c(O)c(O)c1 [Octyl gallate]
- IC50 ([1]; 7-HFC 50 μM, 1 mM UDPGA, 15 min): ~75 µM
- percentage of control metabolism, 7-HFC glucuronidation ([1]; inhibitor 25 μM): 86 (1) %
- % of control metabolism (SD, n = 3), 7-HFC glucuronidation ([1]; inhibitor 25 μM, 7-HFC 50 μM, 15 min): 86 (1) %
- percentage of control metabolism, 7-HFC glucuronidation ([1]; inhibitor 50 μM): 65 (0) %
- % of control metabolism (SD, n = 3), 7-HFC glucuronidation ([1]; inhibitor 50 μM, 7-HFC 50 μM, 15 min): 65 (0) %
- percentage of control metabolism, 7-HFC glucuronidation ([1]; inhibitor 100 μM): 26 (1) % and 29 (1) %
- % of control metabolism (SD, n = 3), 7-HFC glucuronidation ([1]; inhibitor 100 μM, 7-HFC 50 μM, 15 min): 26 (1), % and 29 (1) %
- percentage of control metabolism, 7-HFC glucuronidation ([1]; inhibitor 200 μM): 6 (0) %
- % of control metabolism (SD, n = 3), 7-HFC glucuronidation ([1]; inhibitor 200 μM, 7-HFC 50 μM, 15 min): 6 (0) %
- percentage of control metabolism, 7-HFC glucuronidation ([1]; inhibitor 500 μM): 0.1 (0.1) %
- % of control metabolism (SD, n = 3), 7-HFC glucuronidation ([1]; inhibitor 500 μM, 7-HFC 50 μM, 15 min): 0.1 (0.1) %
- % of control metabolism, raloxifene G1 [2]: 80 (3) %
- % of control metabolism, raloxifene G2 [2]: 137 (9) %
- residual metabolism (% of control), E2-17-β-D-glucuronide ([3]; inhibitor 50 μM): 88 (1) %
- residual metabolism (% of control), E2-17-β-D-glucuronide ([3]; inhibitor 100 μM): 74 (2) %
- residual metabolism (% of control), E2-3-β-D-glucuronide ([4]; inhibitor 50 μM): 53 (1) %
- residual metabolism (% of control), E2-3-β-D-glucuronide ([4]; inhibitor 100 μM): 33 (2) %
- inhibition of raloxifene glucuronidation, in words (UGT1A1; UGT1A1): excellent inhibitor
- activity at 15 min (UGT1A1; Supersomes with recombinant human UGT1A1, pH 7.5, probe raloxifene 50 μM, formation of glucuronide G1): 65%
- activity at 15 min, 10 µM (UGT1A1; [5]): 65%
- activity at 15 min, 25 µM (UGT1A1; [5]): 37%
- activity at 15 min, 50 µM (UGT1A1; [5]): 18%
- activity at 15 min, 25 µM (UGT1A1; [6]): 37%
- activity at 15 min, 50 µM (UGT1A1; [6]): 18%
- activity at 15 min, 10 µM (UGT1A1; [7]): 75%
- activity at 15 min, 25 µM (UGT1A1; [7]): 51%
- activity at 15 min, 50 µM (UGT1A1; [7]): 31%
- activity at 15 min (UGT1A1; recombinant UGT1A1 Supersomes, pH 7.5, probe raloxifene 50 μM (formation of glucuronide G2)): 75%
- activity at 15 min, 25 µM (UGT1A1; [8]): 51%
- activity at 15 min, 50 µM (UGT1A1; [8]): 31%
- inhibition of raloxifene glucuronidation, in words (UGT1A3; UGT1A3): excellent inhibitor
- activity at 15 min, 10 µM (UGT1A3; [9]): 61%
- activity at 15 min, 25 µM (UGT1A3; [9]): 28%
- activity at 15 min, 50 µM (UGT1A3; [9]): 12%
- activity at 15 min, 10 µM (UGT1A3; [10]): 60%
- activity at 15 min, 25 µM (UGT1A3; [10]): 31%
- activity at 15 min, 50 µM (UGT1A3; [10]): 13%
- activity at 15 min, 10 µM (UGT1A3; [11]): 61%
- activity at 15 min, 25 µM (UGT1A3; [11]): 28%
- activity at 15 min, 50 µM (UGT1A3; [11]): 12%
- activity at 15 min, 10 µM (UGT1A3; [12]): 60%
- activity at 15 min, 25 µM (UGT1A3; [12]): 31%
- activity at 15 min, 50 µM (UGT1A3; [12]): 13%
- inhibition of raloxifene glucuronidation, in words (UGT1A10; UGT1A10): very poor inhibitor
- activity at 15 min, 50 µM (UGT1A10; formation of glucuronide G1, % of control metabolism, raloxifene G1, UGT1A10): 63%
- activity at 15 min, 50 µM (UGT1A10; formation of glucuronide G2, % of control metabolism, raloxifene G2, UGT1A10): 71%
